These results are taken from ChEMBL document CHEMBL1275340, “BACE1 inhibitory activities of enantiomerically pure, variously substituted N-(3-(4-benzhydrylpiperazin-1-yl)-2-hydroxypropyl) arylsulfonamides” (Bioorg Med Chem, 2010).

The assay deals with Beta-secretase 1 (Homo sapiens, UniProt P56817). Nature of the assay: Inhibition of BACE1 by fluorescence assay.
Chain of Beta-secretase 1 (P56817 whole entry): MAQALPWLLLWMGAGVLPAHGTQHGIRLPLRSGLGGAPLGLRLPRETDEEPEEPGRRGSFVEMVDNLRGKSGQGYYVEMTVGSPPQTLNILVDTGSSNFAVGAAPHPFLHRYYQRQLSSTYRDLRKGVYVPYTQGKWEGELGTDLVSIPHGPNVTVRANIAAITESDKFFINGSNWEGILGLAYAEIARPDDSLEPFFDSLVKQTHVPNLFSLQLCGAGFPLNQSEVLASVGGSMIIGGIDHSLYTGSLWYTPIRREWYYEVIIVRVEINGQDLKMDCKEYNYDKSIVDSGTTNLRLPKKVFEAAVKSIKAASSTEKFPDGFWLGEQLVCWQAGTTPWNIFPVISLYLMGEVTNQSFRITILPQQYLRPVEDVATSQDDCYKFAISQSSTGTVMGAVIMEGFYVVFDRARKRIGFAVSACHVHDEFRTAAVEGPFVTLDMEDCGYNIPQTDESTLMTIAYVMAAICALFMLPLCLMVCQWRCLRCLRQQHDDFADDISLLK

The IC50 is the concentration that inhibits the measured activity by half. The compound `O=S(=O)(c1ccc(Cl)cc1)N(Cc1ccccc1)C[C@H](O)CN1CCN(C(c2ccccc2)c2ccccc2)CC1` had an IC50 of 6.3 µM. This lies in the single-digit micromolar range.

In turn, `O=S(=O)(c1ccc(Cl)cc1)N(CCc1ccccc1)C[C@H](O)CN1CCN(C(c2ccccc2)c2ccccc2)CC1` registered an IC50 of 2.3 µM.

Compound `O=S(=O)(c1ccccc1)N(CCc1ccccc1)C[C@@H](O)CN1CCN(C(c2ccccc2)c2ccccc2)CC1` came in with an IC50 of 6.9 µM. Against the preceding compound, the IC50 is about 3-fold higher.

For the compound `O=S(=O)(c1ccccc1)N(CCc1ccccc1)C[C@H](O)CN1CCN(C(c2ccccc2)c2ccccc2)CC1`, the IC50 came out at 5.1 µM.

With `O=S(=O)(c1ccc(Cl)c(Cl)c1)N(CC1CC1)C[C@H](O)CN1CCN(C(c2ccccc2)c2ccccc2)CC1`, the IC50 worked out at 5.4 µM.

In the case of `O=S(=O)(c1ccc(Cl)cc1)N(CCc1ccccc1)C[C@@H](O)CN1CCN(C(c2ccccc2)c2ccccc2)CC1`, half-maximal inhibition (IC50) was put at 1.9 µM.

In turn, `O=S(=O)(c1ccc(Cl)c(Cl)c1)N(CC1CC1)C[C@@H](O)CN1CCN(C(c2ccccc2)c2ccccc2)CC1` yielded an IC50 of 4.7 µM.

Regarding `O=S(=O)(c1ccc(Cl)cc1)N(Cc1ccccc1)C[C@@H](O)CN1CCN(C(c2ccccc2)c2ccccc2)CC1`, it took 5.4 µM to reach half-maximal inhibition (IC50).
